This passage reports IC50 and PHD2/PHD1 results from patent US9409892B2, “4-hydroxy-isoquinoline compounds as HIF hydroxylase inhibitors” (FIBROGEN, INC., priority 2012, dated 2016).

One test has as its target PHD1 (EGLN2) (Homo sapiens (Human), UniProt Q96KS0). The experiment in a line: HIF-PH assay (14CO2 capture), PHD1 enzyme inhibition. Conditions: Table 1; for IC50: individual measurement, read-out: IC50 (μM) PHD1; for PHD2/PHD1: ratio of the IC50 of the compound for each enzyme. It is filed as biochemical.
In a further test the target is PHD2 (EGLN1) (Homo sapiens (Human), UniProt Q9GZT9). The experiment in a line: HIF-PH assay (14CO2 capture), PHD2 enzyme inhibition. In kind it is biochemical. Conditions: Table 1; individual measurement; read-out: IC50 (μM) PHD2.

Structures are written as SMILES.

Chain of PHD2 (EGLN1) (Q9GZT9 whole entry): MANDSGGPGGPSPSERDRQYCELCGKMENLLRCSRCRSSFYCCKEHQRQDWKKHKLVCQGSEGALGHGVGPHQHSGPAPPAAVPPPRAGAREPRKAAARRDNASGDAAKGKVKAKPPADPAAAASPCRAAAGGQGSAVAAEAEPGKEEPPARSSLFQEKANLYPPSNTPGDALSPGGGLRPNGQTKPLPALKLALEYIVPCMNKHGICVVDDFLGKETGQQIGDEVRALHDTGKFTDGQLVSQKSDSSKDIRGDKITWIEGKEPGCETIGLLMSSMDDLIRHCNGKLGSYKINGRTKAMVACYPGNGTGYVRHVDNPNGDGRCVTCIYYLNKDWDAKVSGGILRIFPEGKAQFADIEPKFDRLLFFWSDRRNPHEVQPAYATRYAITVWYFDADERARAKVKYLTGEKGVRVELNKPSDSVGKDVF
Chain of PHD1 (EGLN2) (Q96KS0 whole entry): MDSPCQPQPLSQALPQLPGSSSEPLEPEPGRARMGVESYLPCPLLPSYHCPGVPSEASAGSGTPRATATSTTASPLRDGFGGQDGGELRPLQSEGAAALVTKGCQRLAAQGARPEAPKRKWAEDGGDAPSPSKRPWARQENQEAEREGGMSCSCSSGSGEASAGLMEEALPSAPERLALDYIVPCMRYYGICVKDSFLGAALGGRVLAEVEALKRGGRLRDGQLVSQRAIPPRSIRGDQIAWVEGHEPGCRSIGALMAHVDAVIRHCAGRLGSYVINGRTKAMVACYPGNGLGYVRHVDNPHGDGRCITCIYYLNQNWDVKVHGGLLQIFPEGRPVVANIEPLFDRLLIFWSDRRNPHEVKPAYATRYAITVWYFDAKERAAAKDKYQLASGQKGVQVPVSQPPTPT

Consider `O=C(O)CCCNC(=O)c1ncc2cc(NC(=O)c3ccc(F)cc3)ccc2c1O` [Compound 120, 4-{[7-(4-Fluoro-benzoylamino)-4-hydroxy-isoquinoline-3-carbonyl]-amino}-butyric acid], for which, on PHD1 (EGLN2), the IC50 (commonly the concentration that inhibits the measured activity by half) came out at 12.4 µM and the PHD2/PHD1 amounted to 16. For the same compound, on PHD2 (EGLN1), the IC50 came to 200 µM.

In the case of `CC(C)(CNC(=O)c1nc(C#N)c2cc(Sc3ccccc3)ccc2c1O)C(=O)O` [Compound 121, 3-[(1-Cyano-4-hydroxy-7-phenylsulfanyl-isoquinoline-3-carbonyl)-amino]-2,2-dimethyl-propionic acid], at PHD1 (EGLN2), the IC50 worked out at 0.84 µM and the PHD2/PHD1 was determined as 10. For the same compound, the IC50 on PHD2 (EGLN1) stood at 8.18 µM.

`CC(C)(CNC(=O)c1nc(C#N)c2cc(CCc3ccccc3)ccc2c1O)C(=O)O` [Compound 122, 3-[(1-Cyano-4-hydroxy-7-phenethyl-isoquinoline-3-carbonyl)-amino]-2,2-dimethyl-propionic acid]: the IC50 is 2.57 µM on PHD1 (EGLN2) and 29.3 µM on PHD2 (EGLN1). In addition, at PHD1 (EGLN2), the PHD2/PHD1 is 11.

Take `CC(C)(CNC(=O)c1nc(C#N)c2ccc(Oc3ccccc3)cc2c1O)C(=O)O` [Compound 123, 3-[(1-Cyano-4-hydroxy-6-phenoxy-isoquinoline-3-carbonyl)-amino]-2,2-dimethyl-propionic acid]: on PHD1 (EGLN2), the 50% inhibitory concentration (IC50) is 6.11 µM and the PHD2/PHD1 is listed as 30. Also, the IC50 on PHD2 (EGLN1) turned out to be 183 µM.

`O=C(O)CCCCNC(=O)c1ncc2cc(Nc3ccccc3)ccc2c1O` [Compound 124, 5-[(4-Hydroxy-7-phenylamino-isoquinoline-3-carbonyl)-amino]-pentanoic acid]: on PHD1 (EGLN2), the IC50 stood at 25.4 µM and the PHD2/PHD1 was found to be 8. For the same compound, at PHD2 (EGLN1), the IC50 stood at 200 µM.

As for `COc1ccc(CNc2ccc3c(O)c(C(=O)NCCCCC(=O)O)ncc3c2)cc1` [Compound 125, 5-{[4-Hydroxy-7-(4-methoxy-benzylamino)-isoquinoline-3-carbonyl]-amino}-pentanoic acid], on PHD1 (EGLN2), the IC50 was 7.92 µM and the PHD2/PHD1 stood at 20. Further, the IC50 at PHD2 (EGLN1) is 158 µM.

For `COc1ccc(CNc2ccc3c(O)c(C(=O)NCC(C)(C)C(=O)O)ncc3c2)cc1` [Compound 126, 3-{[4-Hydroxy-7-(4-methoxy-benzylamino)-isoquinoline-3-carbonyl]-amino}-2,2-dimethyl-propionic acid], the IC50 at PHD1 (EGLN2) stood at 34 µM; at PHD2 (EGLN1), 200 µM. The PHD2/PHD1 at PHD1 (EGLN2) was found to be 6.

On to `CC(C)(CNC(=O)c1ncc2cc(Sc3ccccc3)ccc2c1O)C(=O)O` [Compound 127, 3-[(4-Hydroxy-7-phenylsulfanyl-isoquinoline-3-carbonyl)-amino]-2,2-dimethyl-propionic acid], for which, on PHD1 (EGLN2), the IC50 was determined as 7.69 µM and the PHD2/PHD1 was determined as 8. Besides, on PHD2 (EGLN1), the 50% inhibitory concentration (IC50) amounted to 63.1 µM.

For `N#Cc1nc(C(=O)NCCCCC(=O)O)c(O)c2cc(Oc3ccccc3)ccc12` [Compound 128, 5-[(1-Cyano-4-hydroxy-6-phenoxy-isoquinoline-3-carbonyl)-amino]-pentanoic acid], on PHD1 (EGLN2), the IC50 is 8.99 µM and the PHD2/PHD1 was found to be 7. The IC50 on PHD2 (EGLN1) was 65.2 µM.

`CC(C)(CNC(=O)c1ncc2cc(-c3ccccc3)ccc2c1O)C(=O)O` [Compound 129, 3-[(4-Hydroxy-7-phenyl-isoquinoline-3-carbonyl)-amino]-2,2-dimethyl-propionic acid]: on PHD1 (EGLN2), the IC50 was found to be 25.3 µM and the PHD2/PHD1 was 7. The IC50 on PHD2 (EGLN1) was 180 µM.

On to `O=C(O)CCNC(=O)c1ncc2cc(NC(=O)NC3CCCCC3)ccc2c1O` [Compound 130, 3-{[7-(3-Cyclohexyl-ureido)-4-hydroxy-isoquinoline-3-carbonyl]-amino}-propionic acid], for which, at PHD1 (EGLN2), the IC50 was determined as 4.91 µM and the PHD2/PHD1 turned out to be 8. Also, the half-inhibitory concentration (IC50) at PHD2 (EGLN1) came out at 39.6 µM.

With `O=C(O)CCCNC(=O)c1ncc2cc(NC(=O)NC3CCCCC3)ccc2c1O` [Compound 131, 4-{[7-(3-Cyclohexyl-ureido)-4-hydroxy-isoquinoline-3-carbonyl]-amino}-butyric acid], the IC50 was determined as 3.16 µM on PHD1 (EGLN2) and 77.6 µM on PHD2 (EGLN1). In addition, on PHD1 (EGLN2), the PHD2/PHD1 is recorded as 25.

For the compound `O=C(O)CCNC(=O)c1ncc2cc(-c3ccc(F)cc3)ccc2c1O` [Compound 132, 3-{[7-(4-Fluoro-phenyl)-4-hydroxy-isoquinoline-3-carbonyl]-amino}-propionic acid], the IC50 turned out to be 2.38 µM at PHD1 (EGLN2) and 27.6 µM on PHD2 (EGLN1). In addition, the PHD2/PHD1 at PHD1 (EGLN2) is reported as 12.

With `O=C(O)CCNC(=O)c1ncc2cc(NC(=O)NCc3ccccc3)ccc2c1O` [Compound 133, 3-{[7-(3-Benzyl-ureido)-4-hydroxy-isoquinoline-3-carbonyl]-amino}-propionic acid], at PHD1 (EGLN2), the IC50 came to 0.85 µM and the PHD2/PHD1 was determined as 7. In addition, the IC50 on PHD2 (EGLN1) is 6.06 µM.

Regarding `O=C(O)CCCNC(=O)c1ncc2cc(NC(=O)NCc3ccccc3)ccc2c1O` [Compound 134, 4-{[7-(3-Benzyl-ureido)-4-hydroxy-isoquinoline-3-carbonyl]-amino}-butyric acid], on PHD1 (EGLN2), the IC50 was 2.15 µM and the PHD2/PHD1 is given as 6. Also, the IC50 at PHD2 (EGLN1) came to 13.4 µM.

As for `O=C(O)CCNC(=O)c1ncc2cc(S(=O)(=O)C3CCCCC3)ccc2c1O` [Compound 135, 3-[(7-Cyclohexanesulfonyl-4-hydroxy-isoquinoline-3-carbonyl)-amino]-propionic acid], at PHD1 (EGLN2), the IC50 was determined as 0.35 µM and the PHD2/PHD1 is recorded as 8. In addition, on PHD2 (EGLN1), the IC50 amounted to 2.88 µM.

On to `CC(C)(CNC(=O)c1nc(-c2cncc(F)c2)c2cc(Oc3ccccc3)ccc2c1O)C(=O)O` [Compound 136, 3-{[1-(5-Fluoro-pyridin-3-yl)-4-hydroxy-7-phenoxy-isoquinoline-3-carbonyl]-amino}-2,2-dimethyl-propionic acid], for which the results for the IC50 at PHD1 (EGLN2) and on PHD2 (EGLN1) were 7.21 µM and 200 µM, respectively. On PHD1 (EGLN2), the PHD2/PHD1 was determined as 28.

Take `N#Cc1nc(C(=O)NCCC(=O)O)c(O)c2ccc(-c3ccccc3)cc12` [Compound 137, 3-[(1-Cyano-4-hydroxy-7-phenyl-isoquinoline-3-carbonyl)-amino]-propionic acid]: the IC50 on PHD1 (EGLN2) is 0.61 µM; at PHD2 (EGLN1) it was 3.67 µM. The PHD2/PHD1 at PHD1 (EGLN2) came out at 6.

Consider `CC(C)(CNC(=O)c1nc(C#N)c2cc(-c3ccccc3)ccc2c1O)C(=O)O` [Compound 138, 3-[(1-Cyano-4-hydroxy-7-phenyl-isoquinoline-3-carbonyl)-amino]-2,2-dimethyl-propionic acid], for which, at PHD1 (EGLN2), the IC50 was 1.13 µM and the PHD2/PHD1 is 21. Besides, at PHD2 (EGLN1), the IC50 worked out at 24.1 µM.

As for `CC(C)(CNC(=O)c1nc(C#N)c2cc(NC(=O)c3ccc(F)cc3)ccc2c1O)C(=O)O` [Compound 139, 3-{[1-cyano-7-(4-Fluoro-benzoylamino)-4-hydroxy-isoquinoline-3-carbonyl]-amino}-2,2-dimethyl-propionic acid], the IC50 at PHD1 (EGLN2) was determined as 5.65 µM; on PHD2 (EGLN1), 200 µM. In addition, the PHD2/PHD1 at PHD1 (EGLN2) turned out to be 35.

With `CC(C)(CNC(=O)c1nc(C#N)c2cc(NC(=O)Nc3ccccc3)ccc2c1O)C(=O)O` [Compound 140, 3{-[1-Cyano-4-hydroxy-7-(3-phenyl-ureido)-isoquinoline-3-carbonyl]-amino}-2,2-dimethyl-propionic acid], the IC50 on PHD1 (EGLN2) turned out to be 2.81 µM; at PHD2 (EGLN1), 33.5 µM. Further, on PHD1 (EGLN2), the PHD2/PHD1 turned out to be 12.

Turning to `O=C(O)CCNC(=O)c1ncc2cc(NC(=O)Nc3ccc(F)cc3)ccc2c1O` [Compound 141, 3-({7-[3-(4-Fluoro-phenyl)-ureido]-4-hydroxy-isoquinoline-3-carbonyl}-amino)-propionic acid], the IC50 on PHD1 (EGLN2) amounted to 3 µM; on PHD2 (EGLN1), 37.8 µM. Further, the PHD2/PHD1 at PHD1 (EGLN2) came out at 13.

On to `O=C(O)CCCNC(=O)c1ncc2cc(NC(=O)Nc3ccc(F)cc3)ccc2c1O` [Compound 142, 4-([7-[3-(4-Fluoro-phenyl)-ureido]-4-hydroxy-isoquinoline-3-carbonyl]-amino)-butyric acid], for which the IC50 worked out at 4.12 µM at PHD1 (EGLN2) and 56.4 µM at PHD2 (EGLN1). Besides, the PHD2/PHD1 on PHD1 (EGLN2) came out at 14.

Turning to `CC(C)(CNC(=O)c1nc(-c2ccccc2)c2cc(Oc3ccccc3)ccc2c1O)C(=O)O` [Compound 143, 3-[(4-Hydroxy-7-phenoxy-1-phenyl-isoquinoline-3-carbonyl)-amino]-2,2-dimethyl-propionic acid], on PHD1 (EGLN2), the IC50 stood at 11.1 µM and the PHD2/PHD1 came out at 8. Also, the IC50 at PHD2 (EGLN1) stood at 88.4 µM.

For the compound `O=C(O)CCNC(=O)c1nc(-c2ccccc2)c2cc(Oc3ccccc3)ccc2c1O` [Compound 144, 3-[(4-Hydroxy-7-phenoxy-1-phenyl-isoquinoline-3-carbonyl)-amino]-propionic acid], on PHD1 (EGLN2), the IC50 was found to be 6.4 µM and the PHD2/PHD1 is 5. In addition, the concentration for half-maximal inhibition (IC50) at PHD2 (EGLN1) was found to be 31.7 µM.

In the case of `O=C(O)CCNC(=O)c1nc(C(F)(F)F)c2cc(Oc3ccccc3)ccc2c1O` [Compound 145, 3-[(4-Hydroxy-7-phenoxy-1-trifluoromethyl-isoquinoline-3-carbonyl)-amino]-propionic acid], on PHD1 (EGLN2), the IC50 is 18.6 µM and the PHD2/PHD1 was determined as 5. Also, the IC50 at PHD2 (EGLN1) worked out at 101 µM.

Take `CC(C)(CNC(=O)c1ncc2cc(Cc3ccccc3)ccc2c1O)C(=O)O` [Compound 146, 3-[(7-Benzyl-4-hydroxy-isoquinoline-3-carbonyl)-amino]-2,2-dimethyl-propionic acid]: at PHD1 (EGLN2), the IC50 worked out at 23.7 µM and the PHD2/PHD1 is recorded as 8. The IC50 on PHD2 (EGLN1) is 181 µM.

Turning to `O=C(O)CCCCNC(=O)c1nc(-c2cncc(F)c2)c2cc(Oc3ccccc3)ccc2c1O` [Compound 147, 5-{[1-(5-Fluoro-pyridin-3-yl)-4-hydroxy-7-phenoxy-isoquinoline-3-carbonyl]-amino}-pentanoic acid], the IC50 on PHD1 (EGLN2) came out at 5.09 µM; on PHD2 (EGLN1), 77 µM. The PHD2/PHD1 on PHD1 (EGLN2) amounted to 15.
